Results as given in the supplement of paper PMC7840683.
Structures can show the parent of a compound that is named as a salt.

System: HepaRG
Assay: LDH release cytotoxicity, % of total lysis control; higher = more cytotoxic
Details: 48 h
Outline: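 Single-lot HepaRG cells in collagen I-coated 96-well plates were treated for 48 h in serum-free induction medium containing 0.5% DMSO with test chemicals in eight-point half-log series up to 100 µM. For total lysis, wells received 0.1% Triton X. LDH in 50 µL spent medium was assayed by resorufin fluorescence with CytoTox-ONE. Percent cytotoxicity was normalized to the on-plate vehicle and total lysis controls, with duplicates averaged.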

CCCCNC(=O)n1c(NC(=O)OC)nc2ccccc21 [Benomyl]
Details	LDH release cytotoxicity [%]
0.03162 µM	-1.36
0.1 µM	-0.152
0.3162278 µM	-0.651
1 µM	-2.31
3.16228 µM	-1.18
10 µM	8.93
31.6228 µM	8.73
100 µM	9.79

CC(C)N(C(=O)SCC(Cl)=C(Cl)Cl)C(C)C [Tri-allate]
Details	LDH release cytotoxicity [%]
0.03162 µM	-0.887
0.1 µM	-0.771
0.3162278 µM	-0.223
1 µM	-0.601
3.16228 µM	-0.0707
10 µM	-0.765
31.6228 µM	1.13
100 µM	1.48

CC(C)C(=O)Nc1ccc([N+](=O)[O-])c(C(F)(F)F)c1 [Flutamide]
Details	LDH release cytotoxicity [%]
0.03162 µM	-0.977
0.1 µM	-1.06
0.3162278 µM	-1.63
1 µM	-1.92
3.16228 µM	-1.23
10 µM	0.0752
31.6228 µM	2.14
100 µM	13.6

CCCCCCCC(=O)O [Octanoic acid]
Details	LDH release cytotoxicity [%]
0.03162 µM	-1.17
0.1 µM	-1.02
0.3162278 µM	-0.609
1 µM	-0.537
3.16228 µM	-0.391
10 µM	-0.933
31.6228 µM	-0.626
100 µM	0.799

CNC(=O)N(C)c1nnc(C(C)(C)C)s1 [Tebuthiuron]
Details	LDH release cytotoxicity [%]
0.03162 µM	-1.29
0.1 µM	-1.38
0.3162278 µM	-1.87
1 µM	-1.53
3.16228 µM	-0.935
10 µM	-1.24
31.6228 µM	-1.15
100 µM	0.223

CCCCCCC(=O)O [Heptanoic acid]
Details	LDH release cytotoxicity [%]
0.03162 µM	-1.47
0.1 µM	-1.55
0.3162278 µM	-1.65
1 µM	-1.97
3.16228 µM	-1.6
10 µM	-1.54
31.6228 µM	-1.75
100 µM	0.197

CCC(C)(C)c1ccc(O)c(C(C)(C)CC)c1 [2,4-Di-tert-pentylphenol]
Details	LDH release cytotoxicity [%]
0.03162 µM	0.622
0.1 µM	-1.25
0.3162278 µM	-0.993
1 µM	-1.77
3.16228 µM	-1.69
10 µM	-1.3
31.6228 µM	-1.19
100 µM	0.754

CCCCC=O [Pentanal]
Details	LDH release cytotoxicity [%]
0.031623 µM	0.98
0.1 µM	-1.98
0.316228 µM	-0.995
1 µM	-1.67
3.16228 µM	-1.94
10 µM	-1.12
31.6228 µM	-1.6
100 µM	0.803

CCCCOC(=O)c1ccccc1C(=O)OCc1ccccc1 [Benzyl butyl phthalate]
Details	LDH release cytotoxicity [%]
0.03162 µM	-0.944
0.1 µM	-1.99
0.3162278 µM	-1.76
1 µM	-1.14
3.16228 µM	-1.707
10 µM	-2.01
31.6228 µM	-0.748
100 µM	0.329

Cn1c(=O)c2c(ncn2C)n(C)c1=O [Caffeine]
Details	LDH release cytotoxicity [%]
0.03162 µM	-1.5
0.1 µM	-0.664
0.3162278 µM	-1.14
1 µM	-0.9619
3.16228 µM	-1.02
10 µM	-0.778
31.6228 µM	-0.135
100 µM	1.03

Oc1nc(O)nc(O)n1 [Cyanuric acid]
Details	LDH release cytotoxicity [%]
0.0314647 µM	-2.84
0.0995 µM	-3.15
0.3146466 µM	-2.69
0.995 µM	-2.08
3.14647 µM	-2.52
9.95 µM	-1.85
31.4647 µM	-1.63
99.5 µM	-0.7

CC(=O)OCC1OC(OC2(COC(C)=O)OC(COC(C)=O)C(OC(C)=O)C2OC(C)=O)C(OC(C)=O)C(OC(C)=O)C1OC(C)=O (stereo not drawn) [Sucrose octaacetate]
Details	LDH release cytotoxicity [%]
0.0238752 µM	-0.662
0.0755 µM	-0.298
0.238752 µM	-0.188
0.755 µM	-1.45
2.38752 µM	-0.463
7.55 µM	-0.261
23.8752 µM	-0.0769
75.5 µM	1.89

Cc1cccc(Nc2cc(Cl)nc(SCC(=O)O)n2)c1C [Pirinixic acid]
Details	LDH release cytotoxicity [%]
0.03162 µM	-1.32
0.1 µM	-1.59
0.3162278 µM	-0.978
1 µM	-0.873
3.16228 µM	-1.38
10 µM	-1.43
31.6228 µM	0.274
100 µM	2.17

S=C([S-])NCCNC(=S)[S-].S=C([S-])NCCNC(=S)[S-].[Mn+2].[Zn+2] [Mancozeb]
Details	LDH release cytotoxicity [%]
0.01581 µM	-1.38
0.05 µM	-1.29
0.1581139 µM	-2.2
0.5 µM	-0.828
1.5811388 µM	30.3
5 µM	68.2
15.8114 µM	72.55
50 µM	77.11

Oc1ccc(Cl)cc1Cl [2,4-Dichlorophenol]
Details	LDH release cytotoxicity [%]
0.03305 µM	-0.867
0.1045 µM	-1.22
0.330458 µM	-1.99
1.045 µM	-1.67
3.30458 µM	-1.98
10.45 µM	-1.68
33.0458 µM	-2.38
104.5 µM	-0.904

c1ccc2ccccc2c1 [Naphthalene]
Details	LDH release cytotoxicity [%]
0.03162 µM	-0.307
0.1 µM	-1.13
0.3162278 µM	-0.248
1 µM	-0.532
3.16228 µM	0.237
10 µM	1.23
31.6228 µM	0.531
100 µM	2.74

CCCCOCCOCCOCc1cc2c(cc1CCC)OCO2 [Piperonyl butoxide]
Details	LDH release cytotoxicity [%]
0.031939 µM	-0.462
0.101 µM	-2.71
0.31939 µM	-2.69
1.01 µM	-3.07
3.1939 µM	-2.38
10.1 µM	-1.93
31.939 µM	-0.729
101 µM	4.54

C=C(C)CN(CC)c1c([N+](=O)[O-])cc(C(F)(F)F)cc1[N+](=O)[O-]
Details	LDH release cytotoxicity [%]
0.03162 µM	0.288
0.1 µM	-0.786
0.3162278 µM	-0.775
1 µM	-1.3
3.16228 µM	-0.72
10 µM	-0.92
31.6228 µM	-0.439
100 µM	0.333

CC(C1CC1)C(O)(Cn1cncn1)c1ccc(Cl)cc1 (stereo not drawn) [Cyproconazole]
Details	LDH release cytotoxicity [%]
0.0314647 µM	-2.83
0.0995 µM	-2.41
0.3146466 µM	-3.23
0.995 µM	-3.32
3.14647 µM	-3.1
9.95 µM	-2.59
31.4647 µM	-2.12
99.5 µM	6.32

CCCCc1ccccc1 [Butylbenzene]
Details	LDH release cytotoxicity [%]
0.03162 µM	-0.0627
0.1 µM	-0.967
0.3162278 µM	-0.793
1 µM	-0.547
3.16228 µM	-0.941
10 µM	-0.027
31.6228 µM	-0.00747
100 µM	1.27

COc1ccc([N+](=O)[O-])cc1N [5-Nitro-o-anisidine]
Details	LDH release cytotoxicity [%]
0.03162 µM	0.0404
0.1 µM	-1.94
0.3162278 µM	-1.36
1 µM	-1.28
3.16228 µM	-1.4
10 µM	-1.25
31.6228 µM	0.0123
100 µM	0.941

CC(C)[O-].CC(C)[O-].[O-]CCN(CCO)CCO.[O-]CCN(CCO)CCO.[Ti+4] [Isopropyl triethanolamine titanate]
Details	LDH release cytotoxicity [%]
0.03162 µM	-5.22
0.1 µM	-1.09
0.3162278 µM	-0.881
1 µM	-0.333
3.16228 µM	0.622
10 µM	0.156
31.6228 µM	0.0089
100 µM	0.6851

Cc1ccc(S(=O)(=O)NC(=O)NN2CCCCCC2)cc1 [Tolazamide]
Details	LDH release cytotoxicity [%]
0.03162 µM	-1.21
0.1 µM	-1.21
0.3162278 µM	-1.26
1 µM	-1.16
3.16228 µM	-0.648
10 µM	-0.378
31.6228 µM	-0.0919
100 µM	1.58

O=C(OC[C@H]1O[C@@H](OC(=O)c2cc(O)c(O)c(OC(=O)c3cc(O)c(O)c(O)c3)c2)[C@H](OC(=O)c2cc(O)c(O)c(OC(=O)c3cc(O)c(O)c(O)c3)c2)[C@@H](OC(=O)c2cc(O)c(O)c(OC(=O)c3cc(O)c(O)c(O)c3)c2)[C@@H]1OC(=O)c1cc(O)c(O)c(OC(=O)c2cc(O)c(O)c(O)c2)c1)c1cc(O)c(O)c(OC(=O)c2cc(O)c(O)c(O)c2)c1 [Tannic acid]
Details	LDH release cytotoxicity [%]
0.0096449 µM	-1.06
0.0305 µM	-1.19
0.0964495 µM	-2.39
0.305 µM	-2.34
0.964495 µM	-3.92
3.05 µM	-4.5
9.64495 µM	-0.0405
30.5 µM	5.317

O=S(=O)(O)C(F)(F)C(F)(F)C(F)(F)C(F)(F)C(F)(F)C(F)(F)F [Potassium perfluorohexanesulfonate]
Details	LDH release cytotoxicity [%]
0.03162 µM	-0.914
0.1 µM	-1.15
0.3162278 µM	-1.06
1 µM	-1.98
3.16228 µM	-1.95
10 µM	-0.831
31.6228 µM	-1.52
100 µM	-0.438

CC(=O)C1(O)CCC2C3CCC4=CC(=O)CCC4(C)C3CCC21C (stereo not drawn) [17alpha-Hydroxyprogesterone]
Details	LDH release cytotoxicity [%]
0.03162 µM	-0.419
0.1 µM	-1.4
0.3162278 µM	-2.18
1 µM	-1.25
3.16228 µM	-0.766
10 µM	0.609
31.6228 µM	-0.397
100 µM	0.684

O=[N+]([O-])C(Br)(CO)CO [Bronopol]
Details	LDH release cytotoxicity [%]
0.031623 µM	-1.83
0.1 µM	-3.38
0.316228 µM	-2.69
1 µM	-3.3
3.16228 µM	-3.31
10 µM	-2.52
31.6228 µM	-0.61
100 µM	0.628

O=C1C(=O)C(c2ccc(O)c(O)c2)Oc2cc(O)cc(O)c21 (stereo not drawn) [Quercetin]
Details	LDH release cytotoxicity [%]
0.03162 µM	-0.715
0.1 µM	-0.382
0.3162278 µM	-1.09
1 µM	-1.24
3.16228 µM	-0.569
10 µM	-1.09
31.6228 µM	-1.1
100 µM	10.6

Clc1ccc(Cl)cc1 [1,4-Dichlorobenzene]
Details	LDH release cytotoxicity [%]
0.03162 µM	-0.401
0.1 µM	-1.22
0.3162278 µM	-1.55
1 µM	-0.354
3.16228 µM	-0.734
10 µM	-0.586
31.6228 µM	0.224
100 µM	5.07

CCCCCCC(C=O)=Cc1ccccc1 [2-(Phenylmethylene)octanal]
Details	LDH release cytotoxicity [%]
0.03162 µM	-1.15
0.1 µM	-2.83
0.3162278 µM	-1.02
1 µM	-1.91
3.16228 µM	-1.53
10 µM	-0.899
31.6228 µM	-0.688
100 µM	-0.668

CCCCCCC(=O)OCC [Ethyl heptanoate]
Details	LDH release cytotoxicity [%]
0.03162 µM	-1.33
0.1 µM	-1.43
0.3162278 µM	-1.58
1 µM	-1.97
3.16228 µM	-1.57
10 µM	-1.28
31.6228 µM	0.37
100 µM	3.07

CCCN(CCC)c1c([N+](=O)[O-])cc(C(F)(F)F)c(N)c1[N+](=O)[O-] [Prodiamine]
Details	LDH release cytotoxicity [%]
0.03162 µM	-2.33
0.1 µM	-1.51
0.3162278 µM	-2.72
1 µM	-3.4
3.16228 µM	0.15
10 µM	-1.16
31.6228 µM	-0.459
100 µM	8.35

CC(Cl)(Cl)C(=O)O [Dalapon]
Details	LDH release cytotoxicity [%]
0.03162 µM	-1.01
0.1 µM	-0.953
0.3162278 µM	-0.84
1 µM	-0.409
3.16228 µM	-0.505
10 µM	0.644
31.6228 µM	1.01
100 µM	0.962

CCCCCCCCCCCCOS(=O)(=O)O [Sodium dodecyl sulfate]
Details	LDH release cytotoxicity [%]
0.03162 µM	-0.308
0.1 µM	-0.693
0.3162278 µM	-1.14
1 µM	-0.62
3.16228 µM	-1.89
10 µM	-1.05
31.6228 µM	0.0441
100 µM	10.1

CCC(=C(c1ccccc1)c1ccc(OCCN(C)C)cc1)c1ccccc1 [Tamoxifen]
Details	LDH release cytotoxicity [%]
0.03162 µM	-1.09
0.1 µM	-0.968
0.3162278 µM	-1.82
1 µM	-2.26
3.16228 µM	-0.69
10 µM	-0.919
31.6228 µM	4.6
100 µM	79.7

CCCCCCCCOC(=O)CCCCCCCCC(=O)OCCCCCCCC [Dioctyl sebacate]
Details	LDH release cytotoxicity [%]
0.03162 µM	-0.979
0.1 µM	-1.87
0.3162278 µM	-1.9
1 µM	-1.13
3.16228 µM	-1.59
10 µM	-0.887
31.6228 µM	5.14
100 µM	68.74
